Patent US12503436B2, “Compounds and compositions for treating conditions associated with STING activity” (NOVARTIS PHARMA AG, priority 2021, dated 2025)

Biological target: STING (Homo sapiens, UniProt Q86WV6, G230A/H232R/R293Q/R71H)
Test: STING reporter assay in THP1-Dual KO-IFNAR2 cells (2′3′cGAMP stimulation, luciferase reporter)
Format: cell-based
Conditions: 15 μM 2′3′cGAMP stimulation, 24 h, read-out: Pharmaron, THP1_IFNAR2 STING 24 h Luci Normalized: GeoMean EC50
Description: STING pathway activation by the compounds described herein was measured using THP1-Dual™ cells (KO-IFNAR2).
THP1-Dual™ KO-IFNAR2 Cells (obtained from InvivoGen) were maintained in RPMI, 10% FCS, 5 ml P/S, 2 mM L-glut, 10 mM Hepes, and 1 mM sodium pyruvate. Compounds were spotted in empty 384 well tissue culture plates (Greiner 781182) by Echo for a final concentration of 0.0017-100 μM. Cells were plated into the TC plates at 40 μL per well, 2×10E6 cells/mL. For activation with STING ligand, 2′3′cGAMP (MW 718.38, obtained from Invivogen), was prepared in Optimem media.
The following solutions were prepared for each 1×384 plate: • Solution A: 2 mL Optimem with one of the following stimuli: • 60 μL of 10 mM 2′3′cGAMP→150 μM stock • Solution B: 2 mL Optimem with 60 μL Lipofectamine 2000→Incubate 5 min at RT
2 mL of solution A and 2 ml Solution B was mixed and incubated for 20 min at room temperature (RT). 20 μL of transfection solution (A+B) was added on top of the plated cells, with a final 2′3′cGAMP concentration of 15 μM. The plates were then centrifuged immediately at 340 g for 1 minute, after which they were incubated at 37° C., 5% CO2, >98% humidity for 24 h. Luciferase reporter activity was then measured. EC50 values were calculated by using standard methods known in the art.
Luciferase reporter assay: 10 μL of supernatant from the assay was transferred to white 384-plate with flat bottom and squared wells. One pouch of QUANTI-Luc™ Plus was dissolved in 25 mL of water. 100 μL of QLC Stabilizer per 25 mL of QUANTI-Luc™ Plus solution was added. 50 μL of QUANTI-Luc™ Plus/QLC solution per well was then added. Luminescence was measured on a Platereader (e.g., Spectramax I3X (Molecular Devices GF3637001)).
Luciferase reporter activity was then measured. EC50 values were calculated by using standard methods known in the art.

STING, sequence (Q86WV6 whole entry R71H/G230A/H232R/R293Q): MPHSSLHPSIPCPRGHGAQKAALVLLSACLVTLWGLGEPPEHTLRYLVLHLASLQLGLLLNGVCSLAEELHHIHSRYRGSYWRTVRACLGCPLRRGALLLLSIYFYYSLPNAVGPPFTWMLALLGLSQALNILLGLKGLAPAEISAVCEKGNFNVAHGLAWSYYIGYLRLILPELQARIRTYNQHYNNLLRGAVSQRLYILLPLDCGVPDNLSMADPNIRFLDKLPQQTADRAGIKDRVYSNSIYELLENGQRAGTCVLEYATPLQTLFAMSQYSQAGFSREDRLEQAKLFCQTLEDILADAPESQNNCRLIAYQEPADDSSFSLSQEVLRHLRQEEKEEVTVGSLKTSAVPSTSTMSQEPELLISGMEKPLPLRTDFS

Row | Compound | EC50 [nM]
1 | C[C@]1(C(=O)Nc2c[nH]c3ccc(O[C@H]4C[C@H](c5ccc(C(F)(F)F)cc5)C4)cc23)CC[C@H](O)CC1 (single isomer, unassigned) [Compound 425, trans-4-hydroxy-1-methyl-N-(5-(trans-3-(4-(trifluoromethyl)phenyl)cyclobutoxy)-1H-indol-3-yl)cyclohexane-1-carboxamide] | 200 to 1000
2 | CC(=O)Nc1c[nH]c2ccc(CCOc3ccc(C(F)(F)F)cc3)cc12 [Compound 127, N-(5-(2-(4-(trifluoromethyl)phenoxy)ethyl)-1H-indol-3-yl)acetamide] | 40 to 200
3 | CC(=O)Nc1c[nH]c2ccc(OCCC3CCCN(CC(F)(F)F)C3)cc12 (single isomer, unassigned) [Compound 279] | 1000 to 5000
4 | O=C(Nc1c[nH]c2ccc(OCC[C@@H]3C[C@@H]4CN(CC(F)(F)F)C[C@@H]4C3)cc12)C1CCOCC1 [Compound 152, N-(5-{2-[(3aR,5S,6aS)-2-(2,2,2-trifluoroethyl)-octahydrocyclopenta[c]pyrrol-5-yl]ethoxy}-1H-indol-3-yl)oxane-4-carboxamide] | 200 to 1000
5 | CC(=O)Nc1c[nH]c2ccc(OCCc3ccc(C(F)(F)F)cc3)c(Br)c12 [Compound 350, N-(4-bromo-5-(4-(trifluoromethyl)phenethoxy)-1H-indol-3-yl)acetamide] | 1000 to 5000
6 | CC(=O)Nc1c[nH]c2ccc(O[C@H]3C[C@H](c4ccc(C(F)(F)F)cc4C)C3)cc12 [Compound 435, N-(5-(trans-3-(2-methyl-4-(trifluoromethyl)phenyl)cyclobutoxy)-1H-indol-3-yl)acetamide] | 40 to 200
7 | CC(=O)Nc1c[nH]c2ccc(O[C@@H]3C[C@@H](c4ccc(C(F)(F)F)cc4)[C@H]3C)cc12 [Compound 443, N-(5-((1R,2R,3R)-2-methyl-3-(4-(trifluoromethyl)phenyl)cyclobutoxy)-1H-indol-3-yl)acetamide] | 200 to 1000
8 | O=C(Nc1c[nH]c2ccc(O[C@H]3C[C@H](c4ccc(C(F)(F)F)cc4)C3)cc12)C1CC(O)C1 (stereo partly drawn) [Compound 573, 3-hydroxy-N-(5-(trans-3-(4-(trifluoromethyl)phenyl)cyclobutoxy)-1H-indol-3-yl)cyclobutane-1-carboxamide] | 40 to 200
9 | CC1(C(=O)Nc2c[nH]c3ccc(O[C@H]4C[C@@H](c5ccc(C(F)(F)F)cc5)C4)cc23)CC1 [Compound 263, 1-methyl-N-(5-(cis-3-(4-(trifluoromethyl)phenyl)cyclobutoxy)-1H-indol-3-yl)cyclopropane-1-carboxamide] | 200 to 1000
10 | C[C@]1(C(=O)Nc2c[nH]c3ccc(O[C@H]4C[C@H](c5ccc(C(F)(F)F)cc5)C4)cc23)CC[C@@H](O)CC1 (single isomer, unassigned) [Compound 426, cis-4-hydroxy-1-methyl-N-(5-(trans-3-(4-(trifluoromethyl)phenyl)cyclobutoxy)-1H-indol-3-yl)cyclohexane-1-carboxamide] | 40 to 200
11 | COCC(=O)Nc1c[nH]c2ccc(O[C@H]3C[C@@H](c4ccc(C(F)(F)F)cc4)C3)cc12 [Compound 260, 2-methoxy-N-(5-(cis-3-(4-(trifluoromethyl)phenyl)cyclobutoxy)-1H-indol-3-yl)acetamide] | 200 to 1000
12 | COCC1(C(=O)Nc2c[nH]c3ccc(O[C@H]4C[C@@H](c5ccc(C(F)(F)F)cc5)C4)cc23)CC1 [Compound 333, 1-(methoxymethyl)-N-(5-(cis-3-(4-(trifluoromethyl)phenyl)cyclobutoxy)-1H-indol-3-yl)cyclopropane-1-carboxamide] | 1000 to 5000
13 | O=C(Nc1c[nH]c2ccc(O[C@H]3C[C@H](c4ccc(C(F)(F)F)cc4)C3)cc12)C1COC1 [Compound 518, N-(5-(trans-3-(4-(trifluoromethyl)phenyl)cyclobutoxy)-1H-indol-3-yl)oxetane-3-carboxamide] | 200 to 1000
14 | C[C@H]1C[C@@H](C(=O)Nc2c[nH]c3ccc(O[C@H]4C[C@@H](c5ccc(C(F)(F)F)cc5)C4)cc23)C1 [Compound 335, cis-3-methyl-N-(5-(cis-3-(4-(trifluoromethyl)phenyl)cyclobutoxy)-1H-indol-3-yl)cyclobutane-1-carboxamide] | 200 to 1000
15 | CC[C@@H](O)C(=O)Nc1c[nH]c2ccc(O[C@H]3C[C@H](c4ccc(C(F)(F)F)cc4)C3)cc12 [Compound 429, (R)-2-hydroxy-N-(5-(trans-3-(4-(trifluoromethyl)phenyl)cyclobutoxy)-1H-indol-3-yl)butanamide] | 200 to 1000
16 | CC(=O)Nc1c[nH]c2ccc(O[C@H]3C[C@@H](c4ccc(C(F)(F)F)nc4)C3)cc12 [Compound 455, N-(5-(cis-3-(6-(trifluoromethyl)pyridin-3-yl)cyclobutoxy)-1H-indol-3-yl)acetamide] | 200 to 1000
17 | CC(=O)Nc1c[nH]c2ccc(OCCC3CN(CC(F)(F)F)CC34CC4)cc12 (stereo not drawn) [Compound 478, N-(5-(2-(5-(2,2,2-trifluoroethyl)-5-azaspiro[2.4]heptan-7-yl)ethoxy)-1H-indol-3-yl)acetamide] | 1000 to 5000
18 | C[C@]1(C(=O)Nc2c[nH]c3ccc(OCC[C@@H]4C[C@@H]5CN(CC(F)(F)F)C[C@@H]5C4)cc23)C[C@@H](CO)C1 [Compound 511, (1s,3S)-3-(hydroxymethyl)-1-methyl-N-(5-(2-((3aR,5r,6aS)-2-(2,2,2-trifluoroethyl)octahydrocyclopenta[c]pyrrol-5-yl)ethoxy)-1H-indol-3-yl)cyclobutane-1-carboxamide] | 200 to 1000
19 | O=C(Nc1c[nH]c2ccc(OCC[C@@H]3C[C@@H]4CN(CC(F)(F)F)C[C@@H]4C3)cc12)C1CC(F)(F)C1 [Compound 588, 3,3-difluoro-N-(5-(2-((3aR,5r,6aS)-2-(2,2,2-trifluoroethyl)octahydrocyclopenta[c]pyrrol-5-yl)ethoxy)-1H-indol-3-yl)cyclobutane-1-carboxamide] | 40 to 200

Next, values leading:

Row | EC50 [nM] | Compound
20 | 200 to 1000 | C[C@]1(C(=O)Nc2c[nH]c3ccc(OCC[C@@H]4C[C@@H]5CN(CC(F)(F)F)C[C@@H]5C4)cc23)C[C@H](O)C1 [Compound 514, (1r,3R)-3-hydroxy-1-methyl-N-(5-(2-((3aR,5r,6aS)-2-(2,2,2-trifluoroethyl)octahydrocyclopenta[c]pyrrol-5-yl)ethoxy)-1H-indol-3-yl)cyclobutane-l-carboxamide]
21 | 1000 to 5000 | CC(=O)Nc1c[nH]c2ccc(CCOc3ccc(C(F)(F)F)nc3)cc12 [Compound 232, N-(5-(2-((6-(trifluoromethyl)pyridin-3-yl)oxy)ethyl)-1H-indol-3-yl)acetamide]
22 | 1000 to 5000 | CCO/C=C/c1ccc2[nH]cc(NC(=O)C3CCC3)c2c1 [Compound 143, (E)-N-(5-(2-ethoxyvinyl)-1H-indol-3-yl)cyclobutanecarboxamide]
23 | 200 to 1000 | 1-fluoro-N-(5-(2-((3aR,5r,6aS)-2-(2,2,2-trifluoroethyl)octahydrocyclopenta[c]pyrrol-5-yl)ethoxy)-1H-indol-3-yl)cyclopropane-1-carboxamide [Compound 371]
24 | 1000 to 5000 | CC(=O)Nc1c[nH]c2ccc(CCNc3ccc(C(F)(F)F)cn3)cc12 [Compound 199, N-(5-(2-((5-(trifluoromethyl)pyridin-2-yl)amino)ethyl)-1H-indol-3-yl)acetamide]
25 | 40 to 200 | COCC1(C(=O)Nc2c[nH]c3ccc(OCCc4ccc(C(F)(F)F)cc4)cc23)CC1 [Compound 204, 1-(methoxymethyl)-N-(5-(4-(trifluoromethyl)phenethoxy)-1H-indol-3-yl)cyclopropane-1-carboxamide]
26 | 1000 to 5000 | CC(=O)Nc1c[nH]c2ccc(CCOc3ccc(C4CCOCC4)cc3)cc12 [Compound 226, N-(5-(2-(4-(tetrahydro-2H-pyran-4-yl)phenoxy)ethyl)-1H-indol-3-yl)acetamide]
27 | 200 to 1000 | CC1(C(=O)Nc2c[nH]c3ccc(OCc4ccc(C(F)(F)F)cc4)cc23)CCOCC1 [Compound 328, 4-methyl-N-(5-((4-(trifluoromethyl)benzyl)oxy)-1H-indol-3-yl)tetrahydro-2H-pyran-4-carboxamide]
28 | 40 to 200 | CC(=O)Nc1c[nH]c2ccc(OCCc3cnc(N4CCC(F)(F)CC4)c(F)c3)cc12 [Compound 254, N-(5-(2-(6-(4,4-difluoropiperidin-1-yl)-5-fluoropyridin-3-yl)ethoxy)-1H-indol-3-yl)acetamide]
29 | 40 to 200 | CC(=O)Nc1c[nH]c2ccc(CCOc3ccc(CC(F)(F)F)cc3)cc12 [Compound 442, N-(5-{2-[4-(2,2,2-trifluoroethyl)phenoxy]ethyl}-1H-indol-3-yl)acetamide]
30 | 200 to 1000 | CC(=O)Nc1c[nH]c2ccc(CCSc3ccc(C(F)(F)F)cc3)cc12 [Compound 256, N-(5-(2-((4-(trifluoromethyl)phenyl)thio)ethyl)-1H-indol-3-yl)acetamide]
